# Test results taken from US11298402B2, “Lysosomal degradation of lipids and proteins and method of use thereof” (University of Ottawa, priority 2015, dated 2022).
# Columns and labels:
# [1] = system: McA-RH7777 cells (A18-C3); assay: Live imaging of lysosomal motility and lysosome-CLD interaction (kiss-and-run); format: cell-based, rat
# Experimental: In certain non-limiting examples described herein, McA-RH7777 cells stably expressing human apoB-100 and human apoC-III (designated A18-C3) were used for the studies. […] In addition, these studies, particularly those concerning EPA- or DHA-triggered lysosomal motility and CLD degradation, were also performed using primary rat hepatocytes. Transfection of plasmids encoding proteins of interest, or transfection of siRNA specific for silencing target gene expression, was achieved using the FuGENE HP Extreme reagent (Roche). Representative gene silencing siRNA sequences, which are not meant to be limiting, are described in Table 1, and plasmids encoding proteins of interest are described in Table 2. The effectiveness of siRNA silencing was verified by Western-blotting of cellular content of the target proteins, and by intracellular localization assay using siRNA-Tracker (Mirus Bioscience). Twenty-four h after plasmid transfection, or 48 h after siRNA transfection, the cells were cultured in lipid-rich media containing fetal bovine serum (20%) and OA (0.4 mM). The lipid-laden cells were switched to fresh media supplemented with OA or EPA (0.4 mM). In live imaging experiments, LipidTOX Red (Life Technologies) and LysoTracker (Life Technologies) were added to media prior to EPA treatment, to visualize lipid droplets and lysosomes, respectively. For visualizing peroxisomes, Peroxisome-GFP (Invitrogen) was introduced to the cells 24 h prior to experiments. Quantification of cell lipid contents was achieved either by direct mass measurement (HPTLC) and counting the number of lipid droplets using Image J Lipid Droplet Counter Plug-In, or indirectly by Western blot analysis of cellular content of ADRP. Secretion of apoB and TG-rich lipoprotein was determined by Western blot analysis and metabolic labeling. Mitochondrial β-oxidation was measured using MitoSOX Red (Life Technologies) in situ. Autophagic flux was determined by using Cyto-ID assay (Enzo Life Science) and by monitoring GFP-LC3 clustering in situ. Interaction of Arl8b and subunits of the HOPS complex was determined in situ by the proximity ligation assay (Olink Biosience). Cytoplasmic pH was measured using the cytosolic pHrodo indicator reagent (Invitrogen). Live imaging of fluorescent-tagged proteins was performed 1 h post-EPA treatment. Cells were also collected at the time of EPA treatment for transmission EM and tomography, as well as immuno-EM. For movies, cells were imaged at 60 sec intervals every 5 min, for a total of 30 min.
# Cells were grown on 35-mm glass bottom dishes (Ibidi GmbH München, Germany) for 16 h in DMEM supplemented with FBS (20%) and OA (0.4 mM). Cells were imaged using a Zeiss 510 META laser scanning confocal microscope with a heated CO2-controlled stage (5% CO2 at 37° C.). Images were captured at a frame-rate of 30 frame/sec using a 63×. N.A.1.4 objective. Recommended laser lines and filter combinations were used for each dye. For visualization of lipid droplets, lysosomes, mitochondria, and mitochondrial β-oxidation, the respective reagents LipidTOX Red (Invitrogen), LysoTracker (Life Technology), MitoTracker (Life Technology), MitoSox Red (Invitrogen), and Peroxisome-GFP BacMam2.0 (Invitrogen) were introduced into the cells, according to manufacturers' recommendations, prior to EPA treatment.
# Cells were cultured with lipid-rich media containing OA (0.4 mM) for 16 h. The lipid-laden cells were switched to fresh media containing EPA (0.4 mM) for 1 h, and the lysosomal movement towards lipid droplets was recorded by time-lapse microscopy. Fluorescent intensity of lysosomal signals at the periphery of selected individual lipid droplet was measured using Image J Live Intensity Profiler Plug-in^31-33 over a period of 40 sec. Quantification for each condition was carried out for 60 individual lipid droplets from three independent experiments. Constant threshold was applied to all of the images in each experiment.
# [2] = system: hepatic cells; assay: Prolonged oleate treatment (OA-induced steatosis) of hepatic cells; format: cell-based; details: oleate 0.4 mM for up to 3 days
# Source text: FIG. 36 illustrates that the LD content in cells cultured under lipid-rich conditions may be manipulated by expression of different forms of Arl8b. Images in the top row show position of lysosomes in cells cultured in a lipid-rich medium (i.e. supplemented with oleate) for up to 4 days. After 1-day treatment with oleate, lysosomes (stained with LysoTracker, green) were accumulated in the perinuclear regions of cells. However after 2-day oleate treatment, lysosomes were relocated towards the LDs at cell periphery. The relocation of lysosomes from the perinuclear region toward cell periphery indicates perturbed lysosomal motility under oleate-treatment conditions, which leads to prolonged association of lysosomes with LDs. Accumulation/higher interaction of lysosomes on LDs became more pronounced after 3- and 4-day treatment with oleate, with clear rings of lysosomes around LDs. Expression of the GDP-bound form of Arl8b, or Arl8b^T34N (or Arl8b “DN”, dominant negative), protects hepatocytes from accumulation of LDs upon long-term treatment with oleate. Note that even after 3 days, cells expressing Arl8b “DN” were healthy and accumulated low numbers of LDs (middle row). In contrast, expression of the GTP-bound form of Arl8b, or Arl8b^Q75L (or Arl8b “DA”, dominant active), exacerbated accumulation of LDs in cells (images in the bottom row). In fact, the cells could not tolerate long-term treatment and started to die after day 2. This situation may be similar to that in advanced levels of fatty liver, which causes hepatocyte apoptosis;
# In these cells, lysosomes were continuously in contact with CLD, indicative of stalled lysosomal motility. This persistent lysosomal interaction with CLDs (i.e. “kiss” without “run”) clearly indicates the interfered process of microautophagy and lack of a mechanism in the cells, after prolonged OA treatment, that facilitates dissociation of lysosomes from CLDs, blocking the engulfment process. Thus, phenotypically, accumulation of CLD in cells cultured in lipid-rich media (e.g. supplementation with 0.4 mM OA) is invariably associated with a compromised lysosomal motility (i.e. kiss-and-run).
# [3] = system: McA-RH7777 cells (A18-C3); assay: Measurement of cytosolic pH (pHrodo); format: cell-based, rat; details: OA or EPA treatment
# Experimental: In certain non-limiting examples described herein, McA-RH7777 cells stably expressing human apoB-100 and human apoC-III (designated A18-C3) were used for the studies. […] In addition, these studies, particularly those concerning EPA- or DHA-triggered lysosomal motility and CLD degradation, were also performed using primary rat hepatocytes. Transfection of plasmids encoding proteins of interest, or transfection of siRNA specific for silencing target gene expression, was achieved using the FuGENE HP Extreme reagent (Roche). […] Quantification of cell lipid contents was achieved either by direct mass measurement (HPTLC) and counting the number of lipid droplets using Image J Lipid Droplet Counter Plug-In, or indirectly by Western blot analysis of cellular content of ADRP. Secretion of apoB and TG-rich lipoprotein was determined by Western blot analysis and metabolic labeling. Mitochondrial β-oxidation was measured using MitoSOX Red (Life Technologies) in situ. Autophagic flux was determined by using Cyto-ID assay (Enzo Life Science) and by monitoring GFP-LC3 clustering in situ. Interaction of Arl8b and subunits of the HOPS complex was determined in situ by the proximity ligation assay (Olink Biosience). Cytoplasmic pH was measured using the cytosolic pHrodo indicator reagent (Invitrogen). […]
compound,measurement,setting,value
"CCCCCCCC/C=C\CCCCCCCC(=O)O [OA, oleic acid, reference compound]",lysosomal motility and direct lysosomal interaction with CLD,"[1]; fatty acid added to lipid-laden cells, live imaging",reduced levels of interaction between lysosomes and lipid droplets
same,activation of microautolipophagy,[1]; oleate treatment,transient and is of low magnitude
same,duration of the brief activation of microautolipophagy,[1]; oleate treatment,10 to 15 min
same,steatosis (CLD accumulation),[2],developed severe steatosis
same,cytoplasmic pH,[3],neutral
